# Reference: US12232493B2, “Biopesticide formulation and treatment method thereof” (Xinjiang Institute of Ecology and Geography, Chinese …, priority 2023, dated 2025)
# Read-outs that look alike come from different tables or passages of the source.
# Columns and labels:
# [1] = system: sorghum; assay: Pot experiment under drought treatment, terrein seed soaking or spraying, sorghum; assay type: in vivo
# Protocol: (§1) An embodiment of effects of 2 μg/mL terrein formulation on the growth of four crops by seed soaking treatment under drought conditions is as follows. Terrein (purity 95%) is prepared as a solution with a concentration of 2 μg/mL in distilled water, and pakchoi, mung bean, sorghum, and wheat seeds are soaked in it for 6 hours, and the seeds are also soaked in distilled water as a blank control. Subsequently, the soaked crop seeds are sown into potted plants, and each of the treatment group is replicated five times. When the seedlings grew to about 10 cm, the drought treatment culture is carried out. The room temperature is 25° C., the humidity is 70%, 12 hours of light and 12 hours of darkness each day, and the light intensity is 80-100 μmol·m^−2·s^−1. During the period, the soil was kept in a dry state, and 200 mL is watered every week for 30 days, with a total of 800 mL. The drought culture conditions described below are all treated in the same way. After 30 days, the root length, seedling height, and fresh weight of pakchoi, mung bean, sorghum, and wheat are measured, and 10 seedlings are selected from each of the treatment groups, with a total of 50 plants (N=50), hereafter, they are dried in an oven and then measured dry weight. The growth rates of root length, seedling height, fresh weight, and dry weight of pakchoi, mung bean, sorghum, and wheat under 2 μg/mL compared to the blank control are first calculated, that is, An embodiment of effects of 10 μg/mL terrein formulation on the growth of four crops by seed soaking treatment under drought conditions is as follows. Terrein is prepared as a solution with a concentration of 10 μg/mL in distilled water, and pakchoi, mung bean, sorghum, and wheat seeds are soaked in it for 6 hours, and the seeds are also soaked in distilled water as a blank control. Subsequently, the soaked crop seeds are sown into potted plants. When the seedlings grew to about 10 cm, the drought treatment culture is carried out. After 30 days, the root length, seedling height, and fresh weight of pakchoi, mung bean, sorghum, and wheat are measured, hereafter, they are dried in an oven and then measured dry weight. An embodiment of effects of 2 μg/mL terrein formulation on the growth of four crops by spraying treatment under drought conditions is as follows. Seeds of four tested plants are soaked in distilled water and then sowing. Terrein is prepared as a solution with a concentration of 2 μg/mL in distilled water. When the potted pakchoi, mung bean, sorghum, and wheat grow to about 10 cm (15-20 days after sowing), spray them once, with an amount of about 3 mL, and distilled water sprayed used as blank control. Subsequently, the drought treatment culture is carried out. The room temperature is 25° C., the humidity is 70%, 12 hours of light and 12 hours of darkness each day, and the light intensity is 80-100 μmol·m^−2·s^−1. During the period, the soil was kept in a dry state, and 200 mL is watered every week for 30 days, with a total of 800 mL. After 30 days, the root length, seedling height, and fresh weight of pakchoi, mung bean, sorghum, and wheat are measured, hereafter, they are dried in an oven and then measured dry weight. An embodiment of effects of 10 μg/mL terrein formulation on the growth of four crops by spraying treatment under drought conditions is as follows. Seeds of four tested plants are soaked in distilled water and then sowing. Terrein is prepared as a solution with a concentration of 10 μg/mL in distilled water. When the potted pakchoi, mung bean, sorghum, and wheat grow to about 10 cm (15-20 days after sowing), spray them once, with an amount of about 3 mL, and distilled water sprayed used as blank control. Subsequently, the drought treatment is carried out. After 30 days, the root length, seedling height, and fresh weight of pakchoi, mung bean, sorghum, and wheat are measured, hereafter, they are dried in an oven and then measured dry weight. […]
# [2] = Solubility in water; assay type: physicochemical
# [3] = system: wheat; assay: Pot experiment under drought treatment, terrein seed soaking or spraying, wheat; assay type: in vivo
# Protocol: as §1
# [4] = system: pakchoi; assay: Indoor petri dish bioassay, pakchoi under drought treatment conditions; assay type: in vivo; conditions: for inhibition at 250 µg/mL: terrein 250 μg/mL
# Protocol: The present invention has done corresponding indoor petri dish bioassay experiments before, with pakchoi under drought treatment conditions as the recipient plant, terrein as the donor, and the concentration of terrein is set to 0, 2, 10, 50 and 250 μg/mL. […] Therefore, the present invention only selects low concentrations (2 μg/mL, 10 μg/mL) for experiments to confirm the effect of terrein on drought resistance and growth promotion of crops in outdoor pot experiments.
# [5] = system: pakchoi; assay: Pot experiment under drought treatment, terrein seed soaking or spraying, pakchoi; assay type: in vivo
# Protocol: as §1
# [6] = system: mung bean; assay: Pot experiment under drought treatment, terrein seed soaking or spraying, mung bean; assay type: in vivo
# Protocol: as §1
# [7] = 2 μg/mL terrein seed soaking treatment, drought, 30 days
# [8] = 2 μg/mL terrein seed soaking, drought, 30 days
# [9] = 2 μg/mL terrein spraying at seedling stage
# [10] = 2 μg/mL terrein spraying treatment, drought, 30 days
# [11] = 2 μg/mL terrein spraying, drought, 30 days
# [12] = 10 μg/mL terrein seed soaking treatment, drought, 30 days
# [13] = 10 μg/mL terrein seed soaking, drought
# [14] = 10 μg/mL terrein seed soaking, drought, 30 days
# [15] = 10 μg/mL terrein spraying treatment, drought, 30 days
# [16] = 10 μg/mL terrein spraying, drought
# [17] = 10 μg/mL terrein spraying, drought, 30 days
# [18] = 2 μg/mL terrein seed soaking, drought, 30 days, p<0.05
compound,measurement,setting,value
C/C=C/C1=CC(=O)[C@H](O)[C@H]1O [terrein],dry weight,[1]; [7],0.37 g
same,fresh weight,[1]; [7],1.71 g
same,root length,[1]; [7],35.67 cm
same,seedling height,[1]; [7],40.43 cm
same,effect on growth,[1]; [8],no significant effect
same,effect on growth,[1]; [9],significant promoting effect
same,dry weight,[1]; [10],0.40 g
same,fresh weight,[1]; [10],1.92 g
same,root length,[1]; [10],38.15 cm
same,seedling height,[1]; [10],39.14 cm
same,growth rate of dry weight compared with the blank control,[1]; [11],20.80%
same,growth rate of fresh weight compared with the blank control,[1]; [11],18.92%
same,growth rate of root length compared with the blank control,[1]; [11],18.49%
same,dry weight,[1]; [12],0.38 g
same,fresh weight,[1]; [12],1.88 g
same,root length,[1]; [12],33.99 cm
same,seedling height,[1]; [12],39.69 cm
same,effect on growth,[1]; [13],significant promoting effect
same,growth rate of dry weight compared with the blank control,[1]; [14],15.42%
same,dry weight,[1]; [15],0.42 g
same,fresh weight,[1]; [15],1.93 g
same,root length,[1]; [15],42.01 cm
same,seedling height,[1]; [15],38.16 cm
same,effect on growth,[1]; [16],significant promoting effects
same,growth rate (promotion rate) of dry weight compared with the blank control,[1]; [17],25.19%
same,growth rate (promotion rate) of fresh weight compared with the blank control,[1]; [17],19.90%
same,growth rate (promotion rate) of root length compared with the blank control,[1]; [17],30.50%
same,solubility in water,[2],easily soluble in water
same,effect on growth,[3]; 2 μg/mL terrein seed soaking,significantly promote
same,dry weight,[3]; [7],0.26 g
same,fresh weight,[3]; [7],1.10 g
same,root length,[3]; [7],16.13 cm
same,seedling height,[3]; [7],21.55 cm
same,promotion rate of dry weight compared with the blank control,[3]; [8],21.99%
same,promotion rate of fresh weight compared with the blank control,[3]; [8],52.30%
same,effect on growth,[3]; [9],significant promoting effect
same,dry weight,[3]; [10],0.25 g
same,fresh weight,[3]; [10],1.16 g
same,root length,[3]; [10],17.02 cm
same,seedling height,[3]; [10],18.93 cm
same,growth rate of dry weight compared with the blank control,[3]; [11],16.29%
same,growth rate of fresh weight compared with the blank control,[3]; [11],60.98%
same,dry weight,[3]; [12],0.26 g
same,fresh weight,[3]; [12],1.27 g
same,root length,[3]; [12],18.96 cm
same,seedling height,[3]; [12],20.25 cm
same,effect on growth,[3]; [13],significant promoting effect
same,growth rate of dry weight compared with the blank control,[3]; [14],22.35%
same,growth rate of fresh weight compared with the blank control,[3]; [14],76.39%
same,growth rate of root length compared with the blank control,[3]; [14],25.09%
same,dry weight,[3]; [15],0.29 g
same,fresh weight,[3]; [15],1.42 g
same,root length,[3]; [15],25.37 cm
same,seedling height,[3]; [15],20.49 cm
same,effect on growth,[3]; [16],significant promoting effects
same,growth rate (promotion rate) of dry weight compared with the blank control,[3]; [17],34.79%
same,growth rate (promotion rate) of fresh weight compared with the blank control,[3]; [17],97.21%
same,growth rate (promotion rate) of root length compared with the blank control,[3]; [17],67.40%
same,promotion rate of pakchoi root length,[4]; terrein 2 μg/mL,13.51%
same,promotion rate of pakchoi seedling height,[4]; terrein 2 μg/mL,21.70%
same,promotion rate of pakchoi root length,[4]; terrein 10 μg/mL,18.82%
same,promotion rate of pakchoi seedling height,[4]; terrein 10 μg/mL,23.26%
same,effect on seedling height,[4]; terrein 50 μg/mL,not significant
same,inhibition at 50 µg/mL,"[4]; terrein 50 μg/mL, read-out: inhibition rate of pakchoi root length",16%
same,inhibition at 250 µg/mL,[4]; read-out: inhibition rate of pakchoi root length,86.8%
same,inhibition at 250 µg/mL,[4]; read-out: inhibition rate of pakchoi seedling height,5.71%
same,effect on growth,[5]; 2 μg/mL terrein seed soaking,significantly promote
same,dry weight,[5]; [7],0.16 g
same,fresh weight,[5]; [7],1.91 g
same,root length,[5]; [7],15.46 cm
same,seedling height,[5]; [7],11.45 cm
same,growth rate of dry weight compared with the blank control,[5]; [8],32.47%
same,growth rate of root length compared with the blank control,[5]; [8],76.63%
same,effect on fresh weight compared with the blank control,[5]; [18],not significant
same,effect on seedling height compared with the blank control,[5]; [18],not significant
same,effect on growth,[5]; [9],significant promoting effect
same,dry weight,[5]; [10],0.13 g
same,fresh weight,[5]; [10],1.75 g
same,root length,[5]; [10],11.59 cm
same,seedling height,[5]; [10],11.40 cm
same,growth rate of root length compared with the blank control,[5]; [11],32.48%
same,dry weight,[5]; [12],0.18 g
same,fresh weight,[5]; [12],2.45 g
same,root length,[5]; [12],17.43 cm
same,seedling height,[5]; [12],12.21 cm
same,effect on growth,[5]; [13],significant promoting effect
same,growth rate (promotion rate) of dry weight compared with the blank control,[5]; [14],49.12%
same,growth rate (promotion rate) of fresh weight compared with the blank control,[5]; [14],40.34%
same,growth rate (promotion rate) of root length compared with the blank control,[5]; [14],99.19%
same,growth rate (promotion rate) of seedling height compared with the blank control,[5]; [14],15.66%
same,dry weight,[5]; [15],0.14 g
same,fresh weight,[5]; [15],1.85 g
same,root length,[5]; [15],10.19 cm
same,seedling height,[5]; [15],10.73 cm
same,effect on growth,[5]; [16],significant promoting effects
same,growth rate of root length compared with the blank control,[5]; [17],16.45%
same,effect on growth,[6]; 2 μg/mL terrein seed soaking,significantly promote
same,dry weight,[6]; [7],0.15 g
same,fresh weight,[6]; [7],0.98 g
same,root length,[6]; [7],14.19 cm
same,seedling height,[6]; [7],22.54 cm
same,growth rate of dry weight compared with the blank control,[6]; [8],28.07%
same,growth rate of root length compared with the blank control,[6]; [8],44.72%
same,effect on fresh weight compared with the blank control,[6]; [18],not significant
same,effect on seedling height compared with the blank control,[6]; [18],not significant
same,effect on growth,[6]; [9],significant promoting effect
same,dry weight,[6]; [10],0.14 g
same,fresh weight,[6]; [10],0.92 g
same,root length,[6]; [10],15.88 cm
same,seedling height,[6]; [10],23.99 cm
same,growth rate of root length compared with the blank control,[6]; [11],61.95%
same,dry weight,[6]; [12],0.16 g
same,fresh weight,[6]; [12],0.87 g
same,root length,[6]; [12],12.84 cm
same,seedling height,[6]; [12],24.21 cm
same,effect on growth,[6]; [13],significant promoting effect
same,growth rate of dry weight compared with the blank control,[6]; [14],35.65%
same,growth rate of root length compared with the blank control,[6]; [14],30.92%
same,dry weight,[6]; [15],0.15 g
same,fresh weight,[6]; [15],1.16 g
same,root length,[6]; [15],15.42 cm
same,seedling height,[6]; [15],22.08 cm
same,effect on growth,[6]; [16],significant promoting effects
same,growth rate (promotion rate) of dry weight compared with the blank control,[6]; [17],26.98%
same,growth rate (promotion rate) of fresh weight compared with the blank control,[6]; [17],56.18%
same,growth rate (promotion rate) of root length compared with the blank control,[6]; [17],57.20%
